# Measured values from patent US10597388B2, “Pyridazinone herbicides” (FMC CORPORATION, priority 2014, dated 2020).
# What was measured:
# Format in all cases: in vivo
# [1] = test system: waterhemp (common waterhemp, Amaranthus rudis); test: Test C greenhouse herbicide test, pre- and postemergence
# In short: (§1)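 Two application timings: at sowing into a soil/sand blend, and on 2–18 cm seedlings in peat-vermiculite potting mix. A non-phytotoxic, surfactant-containing solvent carried the compounds. Plants were compared with controls and rated visually on 0–100 after 13–15 d.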
# [2] = test system: ragweed (common ragweed, Ambrosia elatior); test: as above
# In short: as §1
# [3] = test system: morningglory (Ipomoea coccinea); test: as above
# In short: as §1
# [4] = test system: oilseed rape (Brassica napus); test: as above
# In short: as §1
# [5] = test system: lambsquarters (Chenopodium album); test: as above
# In short: as §1
# [6] = test system: pigweed (Amaranthus retroflexus); test: as above
# In short: as §1
# [7] = test system: blackgrass (Alopecurus myosuroides); test: Test A greenhouse herbicide test, postemergence; conditions: for Plant response rating, Blackgrass: 125 g ai/ha, 0 to 100 scale where 0 is no effect and 100 is complete control; for Blackgrass plant response rating: 500 g ai/ha, 0 to 100 scale, 0 is no effect, 100 is complete control
# In short: (§2)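 Plants grown in loam soil/sand blend pots were treated postemergence at 2 to 10 cm height, one- to two-leaf stage, with formulated test chemicals. After approximately 10 d in a greenhouse, injury was rated visually against untreated controls on a 0 to 100 scale (0 no effect, 100 complete control).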
# [8] = test system: galium (catchweed bedstraw, Galium aparine); test: Test A greenhouse herbicide test, postemergence
# In short: as §2
# [9] = test system: ryegrass, Italian (Italian ryegrass, Lolium multiflorum); test: Test A greenhouse herbicide test, pre- and postemergence
# In short: (§3)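 Seeds sown in loam–sand blend got a preemergence directed soil spray of compound in non-phytotoxic solvent with surfactant. Postemergence treatment was given at 2–10 cm, one- to two-leaf stage. After ~10 d in greenhouse, injury was rated visually vs untreated controls, 0 (no effect) to 100 (complete control).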
# [10] = test system: wheat (Triticum aestivum); test: as above; conditions: Postemergence
# In short: as §3
# [11] = test system: pigweed (Amaranthus retroflexus); test: as above
# In short: as §3
# [12] = Postemergence, 31 g ai/ha, scale 0 to 100 (0 no effect, 100 complete control)
# [13] = Postemergence, 125 g ai/ha, scale 0 to 100, 0 is no effect, 100 is complete control
# [14] = Postemergence, 250 g ai/ha, scale 0 to 100, 0 no effect, 100 complete control, 13 to 15 d
# [15] = Preemergence, 31 g ai/ha, scale 0 to 100, 0 is no effect, 100 is complete control
# [16] = Preemergence, 62 g ai/ha, scale 0 to 100, 0 is no effect, 100 is complete control
# [17] = Preemergence, 125 g ai/ha, scale 0 to 100, 0 is no effect, 100 is complete control
# [18] = Preemergence, 250 g ai/ha, scale 0 to 100, 0 no effect, 100 complete control
# [19] = 125 g ai/ha, 0 to 100 scale where 0 is no effect and 100 is complete control
# [20] = 500 g ai/ha, visual rating after approx. 10 d, 0 to 100 scale (0 no effect, 100 complete control)
# [21] = Postemergence, 125 g ai/ha, 0 to 100 scale where 0 is no effect and 100 is complete control
# [22] = Postemergence, 500 g ai/ha, visual rating after approx. 10 d, 0 to 100 scale (0 no effect, 100 complete control)
# [23] = Preemergence, 125 g ai/ha, 0 to 100 scale where 0 is no effect and 100 is complete control
# [24] = Preemergence, 500 g ai/ha, 0 to 100 scale where 0 is no effect and 100 is complete control
structure (smiles),measurement,setting,value
Cc1ccc2ccccc2c1-c1c(O)c(C(F)(F)F)nn(C)c1=O [Compound 102],"Plant response rating, Waterhemp",[1]; [12],25
same,"Plant response rating, Waterhemp",[1]; [13],80
same,"Plant response rating, Waterhemp",[1]; [14],85
same,"Plant response rating, Waterhemp",[1]; [15],75
same,"Plant response rating, Waterhemp",[1]; [16],65
same,"Plant response rating, Waterhemp",[1]; [17],75
same,Waterhemp plant response rating,[1]; [18],85
same,"Plant response rating, Ragweed",[2]; [12],95
same,"Plant response rating, Ragweed",[2]; [13],100
same,"Plant response rating, Ragweed",[2]; [14],100
same,"Plant response rating, Ragweed",[2]; [15],70
same,"Plant response rating, Ragweed",[2]; [16],75
same,"Plant response rating, Ragweed",[2]; [17],90
same,Ragweed plant response rating,[2]; [18],100
same,"Plant response rating, Morningglory",[3]; [12],100
same,"Plant response rating, Morningglory",[3]; [13],100
same,"Plant response rating, Morningglory",[3]; [14],100
same,"Plant response rating, Morningglory",[3]; [15],45
same,"Plant response rating, Morningglory",[3]; [16],75
same,"Plant response rating, Morningglory",[3]; [17],85
same,Morningglory plant response rating,[3]; [18],98
same,"Plant response rating, Oilseed Rape",[4]; [12],0
same,"Plant response rating, Oilseed Rape",[4]; [13],5
same,"Plant response rating, Oilseed Rape",[4]; [14],30
same,"Plant response rating, Oilseed Rape",[4]; [15],0
same,"Plant response rating, Oilseed Rape",[4]; [16],10
same,"Plant response rating, Oilseed Rape",[4]; [17],10
same,Oilseed Rape plant response rating,[4]; [18],35
same,"Plant response rating, Lambsquarters",[5]; [12],75
same,"Plant response rating, Lambsquarters",[5]; [13],70
same,"Plant response rating, Lambsquarters",[5]; [14],100
same,"Plant response rating, Lambsquarters",[5]; [15],70
same,"Plant response rating, Lambsquarters",[5]; [16],85
same,"Plant response rating, Lambsquarters",[5]; [17],85
same,Lambsquarters plant response rating,[5]; [18],100
same,"Plant response rating, Pigweed",[6]; [12],75
same,"Plant response rating, Pigweed",[6]; [13],95
same,"Plant response rating, Pigweed",[6]; [14],100
same,"Plant response rating, Pigweed",[6]; [15],75
same,"Plant response rating, Pigweed",[6]; [16],85
same,"Plant response rating, Pigweed",[6]; [17],98
same,Pigweed plant response rating,[6]; [18],100
same,"Plant response rating, Blackgrass",[7],20
same,Blackgrass plant response rating,[7],70
same,"Plant response rating, Galium",[8]; [19],100
same,"Plant response rating, Galium",[8]; [20],100
same,"Plant response rating, Ryegrass, Italian",[9]; [21],20
same,"Plant response rating, Ryegrass, Italian",[9]; [22],80
same,"Ryegrass, Italian plant response rating",[9]; [23],60
same,"Plant response rating, Ryegrass, Italian",[9]; [24],60
same,"Plant response rating, Wheat",[10]; [19],20
same,"Plant response rating, Wheat",[10]; [20],20
same,"Plant response rating, Pigweed",[11]; [21],90
same,"Plant response rating, Pigweed",[11]; [22],90
same,Pigweed plant response rating,[11]; [23],80
same,"Plant response rating, Pigweed",[11]; [24],100
CCCC(=O)Oc1c(C)nn(C)c(=O)c1-c1c(C)sc2ccc(C)cc12 [Compound 105],"Plant response rating, Waterhemp",[1]; [12],80
same,"Plant response rating, Waterhemp",[1]; [13],100
same,"Plant response rating, Waterhemp",[1]; [14],98
same,"Plant response rating, Waterhemp",[1]; [15],90
same,"Plant response rating, Waterhemp",[1]; [16],95
same,"Plant response rating, Waterhemp",[1]; [17],100
same,Waterhemp plant response rating,[1]; [18],100
same,"Plant response rating, Ragweed",[2]; [12],90
same,"Plant response rating, Ragweed",[2]; [13],98
same,"Plant response rating, Ragweed",[2]; [14],100
same,"Plant response rating, Ragweed",[2]; [15],90
same,"Plant response rating, Ragweed",[2]; [16],90
same,"Plant response rating, Ragweed",[2]; [17],98
same,Ragweed plant response rating,[2]; [18],100
same,"Plant response rating, Morningglory",[3]; [12],100
same,"Plant response rating, Morningglory",[3]; [13],100
same,"Plant response rating, Morningglory",[3]; [14],100
same,"Plant response rating, Morningglory",[3]; [15],85
same,"Plant response rating, Morningglory",[3]; [16],90
same,"Plant response rating, Morningglory",[3]; [17],100
same,Morningglory plant response rating,[3]; [18],95
same,"Plant response rating, Oilseed Rape",[4]; [12],5
same,"Plant response rating, Oilseed Rape",[4]; [13],60
same,"Plant response rating, Oilseed Rape",[4]; [14],75
same,"Plant response rating, Oilseed Rape",[4]; [15],0
same,"Plant response rating, Oilseed Rape",[4]; [16],5
same,"Plant response rating, Oilseed Rape",[4]; [17],10
same,Oilseed Rape plant response rating,[4]; [18],10
same,"Plant response rating, Lambsquarters",[5]; [12],85
same,"Plant response rating, Lambsquarters",[5]; [13],100
same,"Plant response rating, Lambsquarters",[5]; [14],100
same,"Plant response rating, Lambsquarters",[5]; [15],95
same,"Plant response rating, Lambsquarters",[5]; [16],85
same,"Plant response rating, Lambsquarters",[5]; [17],90
same,Lambsquarters plant response rating,[5]; [18],95
same,"Plant response rating, Pigweed",[6]; [12],85
same,"Plant response rating, Pigweed",[6]; [13],100
same,"Plant response rating, Pigweed",[6]; [14],98
same,"Plant response rating, Pigweed",[6]; [15],98
same,"Plant response rating, Pigweed",[6]; [16],100
same,"Plant response rating, Pigweed",[6]; [17],100
same,Pigweed plant response rating,[6]; [18],100
same,"Plant response rating, Blackgrass",[7],80
same,Blackgrass plant response rating,[7],90
same,"Plant response rating, Galium",[8]; [19],100
same,"Plant response rating, Galium",[8]; [20],100
same,"Plant response rating, Ryegrass, Italian",[9]; [21],100
same,"Plant response rating, Ryegrass, Italian",[9]; [22],100
same,"Ryegrass, Italian plant response rating",[9]; [23],100
same,"Plant response rating, Ryegrass, Italian",[9]; [24],100
same,"Plant response rating, Wheat",[10]; [19],0
same,"Plant response rating, Wheat",[10]; [20],20
same,"Plant response rating, Pigweed",[11]; [21],90
same,"Plant response rating, Pigweed",[11]; [22],90
same,Pigweed plant response rating,[11]; [23],100
same,"Plant response rating, Pigweed",[11]; [24],100
